Source: patent publication US20050009005A1, “Methods of using quantitative lipid metabolome data” (Lipomics Technologies, Inc., priority 2001, published 2005)

Tested on: de novo fatty acid synthesis
Assay: Lipid metabolite profile of plasma, heart, liver and inguinal adipose of CL316,243-treated mice (trial 2; Tables 7 and 8)
Format: in vivo
Details: for Total n9 / 14:0 / 16:0 / 16:1n7 / 18:0 / 18:1n7 / 18:1n9 / Saturates / Total n7 / Total nMole of FA: mean
Text: It is understood that the described methods can be used to analyze lipid metabolites from other subjects, including particularly animals other than mice.
Mouse tissue and plasma samples were a generous donation to Lipomics Technologies, Inc., from Dr. Edward Leiter of the Jackson Laboratory (Bar Harbor, Me.). Samples included the plasma, heart, liver and inguinal adipose of mice treated with pharmaceuticals or their corresponding controls.
In trial 2, male, inbred NON mice were fed a control with or without the presence of the β-3 adrenergic agonist CL316,243 for four weeks (at 0.001% CL316,243 by weight in the dietary chow).
In both studies, five treated and five control mice were used. Following the treatments and the killing of the mice, tissues and plasma were taken, chilled to −80 ° C. and shipped to the analysis laboratory at Lipomics Technologies in a frozen state.
Tissue processing and lipid extraction, including provision of internal standards, was carried out essentially as described in Watkins et al. (J. Lipid Res. Papers in Press, 10.1184/jlf.M200169-JLF200, published August 16, 2002), and in co-owned international application PCT/US02/21426, entitled “GENERATING, VIEWING, INTERPRETING, AND UTILIZING A QUANTITATIVE DATABASE OF METABOLITES,” both of which are incorporated in their entirety herein by reference.
The separation of lipid classes was performed in some instance by preparative thin-layer chromatography (TLC). To remove any residual metal or other damaging contaminants on the TLC plates, each plate was washed prior to use. Washing the plates is a three-step process that involves impregnating each plate with ethylenediamine tetraacetic acid (EDTA) and rinsing the plates once with methanol and once with chloroform. Each plate is first impregnated with 1 mM EDTA, pH 5.5, by ascending development using the method of Ruiz (J. Lipid Res. 38, 1482-1489, 1997). After each plate was completely developed, it was dried in air overnight. Once dry, each plate was developed in methanol, dried, and developed in chloroform in the same direction as the development with EDTA. The washed plates were then dried in air. Just prior to use, each plate was activated by heating to 110° C. for 10 minutes.
To prepare the TLC chamber for chromatography, Whatman (Clifton, N.J.) filter paper was cut into 20×80-cm strips and wrapped around the inside wall of a 30×60×10-cm glass development chamber. One hundred milliliters of the appropriate mobile phase was added to the chamber, and the chambers were sealed and allowed to equilibrate. Chambers were considered equilibrated when the solvent front had completely ascended the filter paper. The mobile phase employed for the separation of phospholipid classes (lyso-phospholipids, sphingomyelin, phosphatidylcholine, phosphatidylserine, phosphatidylethanolamine and cardiolipin) was a modification of the solvent system described by Holub and Skeaf (“Nutritional regulation of cellular phosphatidylinositol,” in Methods in Enzymology, ed. Conn, P. M. (Academic Press, Inc., Orlando), pp. 234-243, 1987) consisting of chloroform/methanol/acetic acid/water (100:67:7:4, by volume).
For the separation of neutral lipid classes (free fatty acids, free sterols, triacylglycerides and cholesterol esters), a solvent system consisting of petroleum ether/diethyl ether/acetic acid (80:20:1, by volume) was used (Mangold, Thin Layer Chromatography—A Laboratory Handbook (Springer-Verlag, New York), 1969).
After the TLC plate was activated, the sample extracts were spotted onto the activated plate. As a general rule, samples were spotted at an estimated concentration such that no single lipid class was present at more than 25 jig per centimeter of plate width following chromatography. This ensured that the plate was not overloaded and minimized the risk of cross-contamination between lipid classes (cross-contamination is readily identified during sample analysis as each lipid class contains unique internal standards). […]

For `C[C@H](Cc1ccc2c(c1)OC(C(=O)[O-])(C(=O)[O-])O2)NC[C@H](O)c1cccc(Cl)c1.[Na+].[Na+]` [CL316,243], the “Total n9” value (Liver, lipid class PS/I) was 5.4 percentage of total fatty acids, the “14:0” value (Liver, lipid class TAG) was 1.1 percentage of total fatty acids and the “16:0” value (Liver, lipid class TAG) was 32.1 percentage of total fatty acids. For the same molecule, the “16:1n7” value (Liver, lipid class TAG) was 3.2 percentage of total fatty acids, the “18:0” value (Liver, lipid class TAG) was 3.3 percentage of total fatty acids and the “18:1n7” value (Liver, lipid class TAG) was 2.9 percentage of total fatty acids. For the same molecule, the “18:1n9” value (Liver, lipid class TAG) was 34.1 percentage of total fatty acids, the “14:0” value (Plasma, CE) was 21.2 nanomoles per gram and the “16:0” value (Plasma, CE) was 114.4 nanomoles per gram. The “16:1n7” value (Plasma, CE) was 84.9 nanomoles per gram, the “18:0” value (Plasma, CE) was 16.5 nanomoles per gram and the “18:1n7” value (Plasma, CE) was 13.5 nanomoles per gram. For the same molecule, the “18:1n9” value (Plasma, CE) was 194.2 nanomoles per gram, the Saturates (Plasma, CE) was 162.9 nanomoles per gram and the “Total n7” value (Plasma, CE) was 98.4 nanomoles per gram. For the same molecule, the “Total n9” value (Plasma, CE) was 198.7 nanomoles per gram, the “Total nMole of FA” value (Plasma, CE) was 2584.1 nanomoles per gram and the “14:0” value (Plasma, FFA) was 22.1 nanomoles per gram. For the same molecule, the “16:0” value (Plasma, FFA) was 102.3 nanomoles per gram, the “16:1n7” value (Plasma, FFA) was 15.4 nanomoles per gram and the “18:0” value (Plasma, FFA) was 36.9 nanomoles per gram. For the same molecule, the “18:1n7” value (Plasma, FFA) was 9.8 nanomoles per gram, the “18:1n9” value (Plasma, FFA) was 160.6 nanomoles per gram and the Saturates (Plasma, FFA) was 167.7 nanomoles per gram. The “Total n7” value (Plasma, FFA) was 25.2 nanomoles per gram, the “Total n9” value (Plasma, FFA) was 163.1 nanomoles per gram and the “Total nMole of FA” value (Plasma, FFA) was 424.7 nanomoles per gram. For the same molecule, the “14:0” value (Plasma, LysoPC) was 2.9 nanomoles per gram, the “16:0” value (Plasma, LysoPC) was 241.6 nanomoles per gram and the “16:1n7” value (Plasma, LysoPC) was 4.8 nanomoles per gram. For the same molecule, the “18:0” value (Plasma, LysoPC) was 127.4 nanomoles per gram, the “18:1n7” value (Plasma, LysoPC) was 6.9 nanomoles per gram and the “18:1n9” value (Plasma, LysoPC) was 47.5 nanomoles per gram. The Saturates (Plasma, LysoPC) was 381.9 nanomoles per gram, the “Total n7” value (Plasma, LysoPC) was 11.8 nanomoles per gram and the “Total n9” value (Plasma, LysoPC) was 49.4 nanomoles per gram. The “Total nMole of FA” value (Plasma, LysoPC) was 643.1 nanomoles per gram, the “14:0” value (Plasma, PC) was 5.5 nanomoles per gram and the “16:0” value (Plasma, PC) was 1121.4 nanomoles per gram. For the same molecule, the “16:1n7” value (Plasma, PC) was 15.3 nanomoles per gram, the “18:0” value (Plasma, PC) was 670.9 nanomoles per gram and the “18:1n7” value (Plasma, PC) was 58.8 nanomoles per gram. For the same molecule, the “18:1n9” value (Plasma, PC) was 309.6 nanomoles per gram, the Saturates (Plasma, PC) was 1820.6 nanomoles per gram and the “Total n7” value (Plasma, PC) was 74.0 nanomoles per gram. The “Total n9” value (Plasma, PC) was 320.0 nanomoles per gram, the “Total nMole of FA” value (Plasma, PC) was 1928.9 nanomoles per gram and the “14:0” value (Plasma, PE) was 4.1 nanomoles per gram. For the same molecule, the “16:0” value (Plasma, PE) was 33.9 nanomoles per gram, the “16:1n7” value (Plasma, PE) was 3.3 nanomoles per gram and the “18:0” value (Plasma, PE) was 28.2 nanomoles per gram. The “18:1n7” value (Plasma, PE) was 2.5 nanomoles per gram, the “18:1n9” value (Plasma, PE) was 31.5 nanomoles per gram and the Saturates (Plasma, PE) was 74.0 nanomoles per gram. For the same molecule, the “Total n7” value (Plasma, PE) was 5.8 nanomoles per gram, the “Total n9” value (Plasma, PE) was 33.4 nanomoles per gram and the “Total nMole of FA” value (Plasma, PE) was 106.7 nanomoles per gram. The “14:0” value (Plasma, PL) was 7.6 nanomoles per gram, the “16:0” value (Plasma, PL) was 1315.0 nanomoles per gram and the “16:1n7” value (Plasma, PL) was 20.3 nanomoles per gram. The “18:0” value (Plasma, PL) was 847.2 nanomoles per gram, the “18:1n7” value (Plasma, PL) was 69.7 nanomoles per gram and the “18:1n9” value (Plasma, PL) was 380.8 nanomoles per gram. The Saturates (Plasma, PL) was 2221.2 nanomoles per gram, the “Total n7” value (Plasma, PL) was 90.0 nanomoles per gram and the “Total n9” value (Plasma, PL) was 429.4 nanomoles per gram. For the same molecule, the “Total nMole of FA” value (Plasma, PL) was 2464.5 nanomoles per gram, the “14:0” value (Plasma, TAG) was 17.6 nanomoles per gram and the “16:0” value (Plasma, TAG) was 219.3 nanomoles per gram. For the same molecule, the “16:1n7” value (Plasma, TAG) was 33.1 nanomoles per gram, the “18:0” value (Plasma, TAG) was 45.7 nanomoles per gram and the “18:1n7” value (Plasma, TAG) was 23.7 nanomoles per gram. The “18:1n9” value (Plasma, TAG) was 268.3 nanomoles per gram, the Saturates (Plasma, TAG) was 295.4 nanomoles per gram and the “Total n7” value (Plasma, TAG) was 56.8 nanomoles per gram. The “Total n9” value (Plasma, TAG) was 276.2 nanomoles per gram, the “Total nMole of FA” value (Plasma, TAG) was 344.8 nanomoles per gram and the “14:0” value (Plasma, lipid class CE) was 0.8 percentage of total fatty acids. The “16:0” value (Plasma, lipid class CE) was 4.5 percentage of total fatty acids, the “16:1n7” value (Plasma, lipid class CE) was 3.2 percentage of total fatty acids and the “18:0” value (Plasma, lipid class CE) was 0.7 percentage of total fatty acids. For the same molecule, the “18:1n7” value (Plasma, lipid class CE) was 0.5 percentage of total fatty acids, the “18:1n9” value (Plasma, lipid class CE) was 7.5 percentage of total fatty acids and the “14:0” value (Plasma, lipid class FFA) was 5.7 percentage of total fatty acids. The “16:0” value (Plasma, lipid class FFA) was 28.1 percentage of total fatty acids, the “16:1n7” value (Plasma, lipid class FFA) was 3.2 percentage of total fatty acids and the “18:0” value (Plasma, lipid class FFA) was 10.0 percentage of total fatty acids. The “18:1n7” value (Plasma, lipid class FFA) was 2.1 percentage of total fatty acids, the “18:1n9” value (Plasma, lipid class FFA) was 31.0 percentage of total fatty acids and the “14:0” value (Plasma, lipid class LY) was 0.5 percentage of total fatty acids. For the same molecule, the “16:0” value (Plasma, lipid class LY) was 37.8 percentage of total fatty acids, the “16:1n7” value (Plasma, lipid class LY) was 0.7 percentage of total fatty acids and the “18:0” value (Plasma, lipid class LY) was 20.1 percentage of total fatty acids. The “18:1n7” value (Plasma, lipid class LY) was 1.0 percentage of total fatty acids, the “18:1n9” value (Plasma, lipid class LY) was 7.2 percentage of total fatty acids and the “14:0” value (Plasma, lipid class PC) was 0.1 percentage of total fatty acids. The “16:0” value (Plasma, lipid class PC) was 29.0 percentage of total fatty acids, the “16:1n7” value (Plasma, lipid class PC) was 0.4 percentage of total fatty acids and the “18:0” value (Plasma, lipid class PC) was 17.5 percentage of total fatty acids. For the same molecule, the “18:1n7” value (Plasma, lipid class PC) was 1.5 percentage of total fatty acids, the “18:1n9” value (Plasma, lipid class PC) was 7.9 percentage of total fatty acids and the “14:0” value (Plasma, lipid class PE) was 1.9 percentage of total fatty acids. The “16:0” value (Plasma, lipid class PE) was 16.1 percentage of total fatty acids, the “16:1n7” value (Plasma, lipid class PE) was 1.4 percentage of total fatty acids and the “18:0” value (Plasma, lipid class PE) was 13.5 percentage of total fatty acids. For the same molecule, the “18:1n7” value (Plasma, lipid class PE) was 1.1 percentage of total fatty acids, the “18:1n9” value (Plasma, lipid class PE) was 13.1 percentage of total fatty acids and the “14:0” value (Plasma, lipid class PL) was 0.2 percentage of total fatty acids. For the same molecule, the “16:0” value (Plasma, lipid class PL) was 26.6 percentage of total fatty acids, the “16:1n7” value (Plasma, lipid class PL) was 0.4 percentage of total fatty acids and the “18:0” value (Plasma, lipid class PL) was 17.3 percentage of total fatty acids. For the same molecule, the “18:1n7” value (Plasma, lipid class PL) was 1.4 percentage of total fatty acids, the “18:1n9” value (Plasma, lipid class PL) was 7.7 percentage of total fatty acids and the “14:0” value (Plasma, lipid class TAG) was 1.7 percentage of total fatty acids. The “16:0” value (Plasma, lipid class TAG) was 21.1 percentage of total fatty acids, the “16:1n7” value (Plasma, lipid class TAG) was 3.2 percentage of total fatty acids and the “18:0” value (Plasma, lipid class TAG) was 4.4 percentage of total fatty acids. For the same molecule, the “18:1n7” value (Plasma, lipid class TAG) was 2.3 percentage of total fatty acids, the “18:1n9” value (Plasma, lipid class TAG) was 25.8 percentage of total fatty acids and the “palmitoleic acid concentrations in most lipid classes in heart, liver, adipose and plasma” value (male inbred NON mice, 0.001% CL316,243 in chow 4 weeks, vs controls (Tables 7 and 8)) was “substantial decrease”.
